Like-named read-outs stand apart in the source and are kept apart here.
Tests used:
[1] = target: T1, α7-5HT3 (Homo sapiens, UniProt P36544, M226I/T225I)
[2] = target: T2, α7-GlyR (Homo sapiens, UniProt P36544)
[3] = test system: α7GlyR G175K / A298G mutant chimeric channels; assay type: cell-based, human
[4] = test system: α7GABAc W298A (GABAA-ρ); experiment: Agonist potency at α7GABAc channel with W298A (Table 7); assay type: cell-based, human; details: a7GABAc Q79G L141F W298A
[5] = target: T3, α7GlyR G175K (Homo sapiens, UniProt P36544, G175K); experiment: Agonist potency at chimeric channel; assay type: cell-based
T3 construct: expressed in transfected cells

[6] = target: T4, α7GlyR P216I (Homo sapiens, UniProt P36544, P216I); experiment: Agonist potency at chimeric channel; assay type: cell-based
T4 construct: expressed in transfected cells

[7] = test system: cortical neurons expressing PSAM^4-5HT3 HC; experiment: Chemogenetic activation of cortical neurons expressing PSAM^4-5HT3 HC; assay type: cell-based, mouse
From the text: FIGS. 12A-12F show chemogenetic perturbation of cortical neuron activity. […] FIG. 12C) Cortical layer 2/3 neuron membrane properties were similar in PSAM^4-GlyR expressing neurons and intermingled untransfected control neurons. […] FIG. 12F) Cortical layer 2/3 neuron membrane properties are similar in PSAM^4-5HT3 HC expressing neurons and intermingled untransfected control neurons. Data are mean±SEM. Mann Whitney U-test, n.s. P>0.05, ***P<0.001.
Chemogenetic perturbation of cortical neuron activity was evaluated. […] Cortical layer 2/3 neuron membrane properties were similar in PSAM^4-GlyR expressing neurons and intermingled untransfected control neurons. […] Cortical layer 2/3 neuron membrane properties are similar in PSAM^4-5HT3 HC expressing neurons and intermingled untransfected control neurons. See, e.g., FIG. 12.

[8] = target: T5, 5HT3-R (Homo sapiens, UniProt P46098); experiment: Agonist potency at 5HT3-R; assay type: cell-based
T5 sequence (P46098 24-478): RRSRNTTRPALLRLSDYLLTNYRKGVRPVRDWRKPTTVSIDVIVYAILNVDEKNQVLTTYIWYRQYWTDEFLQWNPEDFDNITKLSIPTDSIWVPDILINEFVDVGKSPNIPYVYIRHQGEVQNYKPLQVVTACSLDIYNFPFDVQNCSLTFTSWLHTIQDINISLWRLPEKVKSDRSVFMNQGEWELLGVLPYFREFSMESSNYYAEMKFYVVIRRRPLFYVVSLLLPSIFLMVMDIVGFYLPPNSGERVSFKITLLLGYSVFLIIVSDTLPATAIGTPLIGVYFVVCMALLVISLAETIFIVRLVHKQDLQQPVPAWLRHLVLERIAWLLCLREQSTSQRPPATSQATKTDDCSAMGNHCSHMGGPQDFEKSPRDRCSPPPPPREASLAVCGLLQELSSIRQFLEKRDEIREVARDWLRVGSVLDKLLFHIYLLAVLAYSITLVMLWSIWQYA

[9] = target: T6, α7^L131A-GlyR (Homo sapiens, UniProt P36544, L131A); assay type: cell-based; details: over α7-GlyR
T6 construct: expressed in transfected cells

[10] = test system: mice expressing PSAM^4-GlyR unilaterally in SNr; experiment: Unilateral SNr silencing rotation assay; assay type: in vivo, mouse
[11] = target: T1, α7-5HT3; remark: listed apart in the source
[12] = target: T2, α7-GlyR; experiment: cell-based
[13] = target: α4β2 nAChR (Homo sapiens, UniProt P17787+P43681); experiment: Agonist potency at α4β2 nAChR
[14] = read-out: α7-5HT3 EC50, HEK cells, Table 3
[15] = read-out: Agonist potency; α7GlyR Q79G A298G G175K Y115F
[16] = read-out: Agonist potency; α7GlyR Q79G A298G Y115F K395 K396A
[17] = read-out: Agonist potency; α7GlyR Q79G G175K A298G
[18] = read-out: Agonist potency; α7GlyR Q79G W77F A298G
[19] = read-out: Agonist potency; α7GlyR R27D E41R Q79G Y115F

T1 sequence (P36544 with tags, fused parts or gaps T225I/M226I limits assumed): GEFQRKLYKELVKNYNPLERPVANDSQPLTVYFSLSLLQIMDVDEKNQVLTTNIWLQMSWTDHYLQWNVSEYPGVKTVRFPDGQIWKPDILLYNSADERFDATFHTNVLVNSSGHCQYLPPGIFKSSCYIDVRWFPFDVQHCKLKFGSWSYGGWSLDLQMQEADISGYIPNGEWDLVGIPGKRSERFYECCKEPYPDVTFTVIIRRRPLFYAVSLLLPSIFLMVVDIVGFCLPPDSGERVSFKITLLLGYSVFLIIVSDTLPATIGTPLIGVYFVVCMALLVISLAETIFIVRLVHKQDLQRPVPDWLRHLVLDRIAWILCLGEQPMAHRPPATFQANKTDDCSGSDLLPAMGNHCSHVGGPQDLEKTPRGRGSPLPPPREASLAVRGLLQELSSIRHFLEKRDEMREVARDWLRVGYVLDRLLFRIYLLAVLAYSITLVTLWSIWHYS
Chain of α4β2 nAChR (P43681 29-627 limits assumed): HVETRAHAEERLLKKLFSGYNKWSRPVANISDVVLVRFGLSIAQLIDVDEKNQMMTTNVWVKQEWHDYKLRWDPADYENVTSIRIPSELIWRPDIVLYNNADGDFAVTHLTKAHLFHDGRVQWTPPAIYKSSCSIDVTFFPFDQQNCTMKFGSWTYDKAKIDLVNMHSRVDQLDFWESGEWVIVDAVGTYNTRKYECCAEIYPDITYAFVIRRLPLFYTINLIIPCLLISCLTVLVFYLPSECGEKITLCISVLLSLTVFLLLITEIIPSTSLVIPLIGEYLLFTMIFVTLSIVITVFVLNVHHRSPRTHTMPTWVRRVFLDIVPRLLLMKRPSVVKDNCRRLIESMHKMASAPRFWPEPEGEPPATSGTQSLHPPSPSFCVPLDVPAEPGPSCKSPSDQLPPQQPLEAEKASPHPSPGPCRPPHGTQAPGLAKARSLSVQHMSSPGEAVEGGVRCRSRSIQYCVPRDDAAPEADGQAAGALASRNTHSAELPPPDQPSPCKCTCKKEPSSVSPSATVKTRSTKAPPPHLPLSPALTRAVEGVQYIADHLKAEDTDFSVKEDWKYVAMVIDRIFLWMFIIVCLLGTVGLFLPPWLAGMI
Chain of α4β2 nAChR (P17787 26-502): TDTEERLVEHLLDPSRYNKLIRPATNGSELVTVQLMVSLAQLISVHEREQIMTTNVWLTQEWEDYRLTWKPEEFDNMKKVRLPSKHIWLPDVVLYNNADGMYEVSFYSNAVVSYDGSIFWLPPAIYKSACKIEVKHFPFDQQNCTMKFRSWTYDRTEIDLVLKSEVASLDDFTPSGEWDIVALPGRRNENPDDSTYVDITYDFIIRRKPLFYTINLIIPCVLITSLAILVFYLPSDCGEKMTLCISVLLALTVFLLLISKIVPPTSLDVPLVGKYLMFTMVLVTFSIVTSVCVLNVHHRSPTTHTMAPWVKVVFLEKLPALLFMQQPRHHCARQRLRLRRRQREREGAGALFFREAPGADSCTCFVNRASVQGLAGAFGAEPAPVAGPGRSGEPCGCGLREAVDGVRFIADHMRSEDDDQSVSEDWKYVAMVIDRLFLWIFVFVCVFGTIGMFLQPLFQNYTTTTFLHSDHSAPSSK
T2 sequence (P36544 with tags, fused parts or gaps): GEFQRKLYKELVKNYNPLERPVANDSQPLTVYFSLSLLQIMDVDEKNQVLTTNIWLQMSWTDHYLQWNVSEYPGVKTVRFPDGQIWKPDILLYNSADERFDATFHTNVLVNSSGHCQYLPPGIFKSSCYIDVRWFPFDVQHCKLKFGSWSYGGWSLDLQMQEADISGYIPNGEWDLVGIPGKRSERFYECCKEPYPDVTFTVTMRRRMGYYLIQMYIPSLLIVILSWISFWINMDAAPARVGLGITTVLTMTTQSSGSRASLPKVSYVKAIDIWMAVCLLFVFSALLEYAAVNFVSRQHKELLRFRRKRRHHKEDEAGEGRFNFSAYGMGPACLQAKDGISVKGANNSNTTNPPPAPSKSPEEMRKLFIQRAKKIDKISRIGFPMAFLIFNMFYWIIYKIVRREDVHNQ
T6 sequence (P36544 with tags, fused parts or gaps L131A limits assumed): as the sequence (P36544 with tags, fused parts or gaps) above, with L109A counted along it
T3 sequence (P36544 with tags, fused parts or gaps G175K): as the sequence (P36544 with tags, fused parts or gaps) above, with G153K counted along it
T4 sequence (P36544 with tags, fused parts or gaps P216I): as the sequence (P36544 with tags, fused parts or gaps) above, with P194I counted along it

Compound	EC50 ([8]; 5HT3-R, Table 10)	EC50 [11]	EC50 [12]	EC50 ([13]; […], α4β2 nAChR, Table 10)	also measured
COc1ccc(OC)c(C(=O)NC2C3CCN(CC3)C2Cc2cccnc2)c1 (mixture of isomers) [compound 0434]	–	–	–	–	EC50 [1, 14]: > 10 µM; EC50 [2]: > 10 µM
O=C(NC1C2CCN(CC2)C1Cc1cccnc1)c1ccc(C(F)(F)F)cc1 (mixture of isomers) [compound 0436]	–	–	–	–	EC50 [1, 14]: 0.84 µM; EC50 [2]: 0.31 µM
O=c1cccc2n1C[C@@H]1CNC[C@H]2C1 [Cytisine]	–	–	–	–	EC50 [3, 15]: 4.6 µM; EC50 ([3]; read-out: Agonist potency; α7GlyR Q79G A298G P216I): 5.5 µM; EC50 [3, 16]: > 30 µM; EC50 [3, 17]: 0.134 µM; EC50 [3, 18]: 14.1 µM; EC50 [3, 19]: > 30 µM; EC50 [4]: 13.3 µM
Clc1ccc(C2CC3CCC2N3)cn1 (centres unmarked) [Epibatidine]	–	–	–	–	EC50 ([3]; α7GlyR Q79G A298G G175K Y115F; read-out: Agonist potency): 0.011 µM; EC50 ([3]; α7GlyR Q79G A298G P216I; read-out: Agonist potency): 0.05 µM; EC50 ([3]; α7GlyR Q79G A298G Y115F K395 K396A; read-out: Agonist potency): 0.15 µM; EC50 ([3]; α7GlyR Q79G G175K A298G; read-out: Agonist potency): 0.0023 µM; EC50 ([3]; α7GlyR Q79G W77F A298G; read-out: Agonist potency): 0.37 µM; EC50 ([3]; α7GlyR R27D E41R Q79G Y115F; read-out: Agonist potency): 0.267 µM; EC50 [4]: 0.42 µM
CN1C2CCCC1CC(NC(=O)c1nn(C)c3ccccc13)C2 (centres unmarked) [Granisetron, reference compound]	–	–	–	–	activation of channel [1]: does not activate
CN1CCCC1c1cccnc1 (centres unmarked) [Nicotine]	–	–	–	–	increased potency [5]: 10 fold; increased potency [6]: > 4 fold
c1cnc2cc3c(cc2n1)[C@@H]1CNC[C@H]3C1 [Varenicline]	1.4 µM	–	–	–	membrane potential and firing [7]: depolarizes and elicits firing; EC50 [3, 15]: 2.37 µM; EC50 [3, 16]: > 30 µM; EC50 [3, 17]: 0.022 µM; EC50 [3, 18]: 3.66 µM; EC50 [3, 19]: > 30 µM; enhanced potency [9]: 8 fold; EC50 [4]: 6.27 µM; rotation response ([10]; low doses, intraperitoneal, not in sham operated or EGFP-alone mice): elicit contraversive rotation; doses at which circling contralateral to the silenced SNr was seen ([10]; mice): above 0.1 mpk; improvement in potency over anti-nicotine activity ([10]; mice): 10 fold; tachyphylaxis of the chemogenetic response ([10]; two doses separated by 5 hours): no tachyphylaxis
O=C(N[C@@H]1CN2CCC1CC2)c1ccc(C(F)(F)F)cn1 [compound 0295]	–	–	–	–	EC50 [1, 14]: > 100 µM; EC50 [2]: > 100 µM
O=C(NC1CN2CCC1CC2)c1ccc(C(F)(F)F)nc1 (centres unmarked) [compound 0296]	–	–	–	–	EC50 [1, 14]: > 100 µM
O=C(Nc1ccccc1)N[C@@H]1CN2CCC1CC2 [compound 0353]	–	–	–	–	EC50 [1, 14]: 0.65 µM; EC50 [2]: 0.27 µM
S=C(Nc1ccc(Cl)cc1)NC1CN2CCC1CC2 (centres unmarked) [compound 0354]	–	–	–	–	partial agonist activity ([1]; HEK cells, Table 3): 1.4 partial
CN1C2CCC1CC(NC(=S)c1c[nH]c3ccccc13)C2 (centres unmarked) [compound 0542]	–	–	–	–	EC50 [1, 14]: 3.8 µM
O=C(N[C@@H]1CN2CCC1CC2)c1c[nH]c2ccccc12 [compound 0676]	–	–	–	–	EC50 [1, 14]: 0.03 µM
Cc1ccccc1-c1cnc2cc3c(cc2n1)C1CNCC3C1 (centres unmarked) [compound 780]	–	10.6 µM	> 100 µM	–	–
Cc1ccccc1-c1cnc2cc3c(cc2n1)C1CC3CN(C)C1 (centres unmarked) [compound 782]	> 30 µM	> 100 µM	> 100 µM	–	–
Cc1nc2cc3c(cc2[nH]c1=O)C1CNCC3C1 (centres unmarked) [compound 783]	0.43 µM	–	> 100 µM	–	EC50 ([13]; […]): 43 µM
O=c1[nH]c2cc3c(cc2nc1-c1ccccc1)C1CNCC3C1 (centres unmarked) [compound 784]	6.2 µM	> 30 µM	> 30 µM	–	–
c1c2c(cc3nc4c(nc13)CCCC4)C1CNCC2C1 [compound 785]	10.2 µM	–	> 100 µM	–	–
c1cncc(-c2nc3cc4c(cc3[nH]2)C2CNCC4C2)c1 (centres unmarked) [compound 786, 2-(pyridin-3-yl)-1,5,6,7,8,9-hexahydro-5,9-methanoimidazo[4′,5′:4,5]benzo[1,2-d]azepine]	–	> 100 µM	> 100 µM	–	–
FC(F)(F)c1cnc2cc3c(cc2n1)C1CNCC3C1 (centres unmarked) [compound 788]	41 µM	> 100 µM	> 100 µM	> 30 µM	–

Compound	EC50 ([8]; 5HT3-R, Table 10)	EC50 [11]	EC50 [12]	EC50 ([13]; […], α4β2 nAChR, Table 10)	also measured
COc1nc2cc3c(cc2nc1-c1ccccc1)C1CNCC3C1 (centres unmarked) [compound 789]	0.51 µM	> 100 µM	> 100 µM	> 30 µM	–
Cc1nc2cc3c(cc2n(C)c1=O)C1CNCC3C1 (centres unmarked) [compound 790]	4.3 µM	> 100 µM	> 100 µM	> 30 µM	–
COc1nc2cc3c(cc2nc1C)C1CNCC3C1 (centres unmarked) [compound 791]	0.17 µM	–	> 30 µM	> 30 µM	–
Cn1c(=O)cnc2cc3c(cc21)C1CNCC3C1 (centres unmarked) [compound 792]	40.5 µM	> 30 µM	–	–	EC50 [2]: > 30 µM
COc1cnc2cc3c(cc2n1)C1CNCC3C1 (centres unmarked) [compound 793]	–	–	–	–	EC50 [8]: 0.19 µM; EC50 [2]: 19 µM
Cc1nc2cc3c(cc2nc1N(C)C)C1CNCC3C1 (centres unmarked) [compound 794]	1.7 µM	–	> 30 µM	> 30 µM	–
CCN(CC)c1nc2cc3c(cc2nc1C)C1CNCC3C1 (centres unmarked) [compound 795]	1.1 µM	–	> 30 µM	> 30 µM	EC50 ([8]; read-out: potency for 5HT3-R): > 1 µM; EC50 ([13]; potency for α4β2 nAChR): > 10 µM
Cc1nc2cc3c(cc2nc1-n1ccnc1)C1CNCC3C1 (centres unmarked) [compound 798]	1.1 µM	> 30 µM	> 30 µM	28 µM	–
c1ccn(-c2cnc3cc4c(cc3n2)C2CNCC4C2)c1 (centres unmarked) [compound 799]	11.7 µM	–	> 100 µM	3.5 µM	–
c1cn(-c2cnc3cc4c(cc3n2)C2CNCC4C2)cn1 (centres unmarked) [compound 800]	3.5 µM	–	> 30 µM	13.9 µM	–
c1ncn(-c2cnc3cc4c(cc3n2)C2CNCC4C2)n1 (centres unmarked) [compound 801]	4.4 µM	–	> 30 µM	26 µM	–
Cc1nc2cc3c(cc2nc1-c1cccnc1)C1CNCC3C1 (centres unmarked) [compound 802]	–	–	> 30 µM	–	EC50 ([8]; […], 5HT3-R, Table 10): 1.5 µM; EC50 ([8]; potency for 5HT3-R): > 1 µM; EC50 ([13]; […]): > 30 µM; EC50 ([13]; potency for α4β2 nAChR): > 10 µM
Cc1nc2cc3c(cc2nc1-c1ccncc1)C1CNCC3C1 (centres unmarked) [compound 803]	–	–	> 30 µM	–	EC50 ([8]; […], 5HT3-R, Table 10): 0.75 µM; EC50 ([13]; […]): 14 µM
c1cncc(-c2cnc3cc4c(cc3n2)C2CNCC4C2)c1 (centres unmarked) [compound 804]	–	–	> 30 µM	–	EC50 ([8]; […], 5HT3-R, Table 10): 2 µM; EC50 ([13]; […]): 4.8 µM
c1cc(-c2cnc3cc4c(cc3n2)C2CNCC4C2)ccn1 (centres unmarked) [compound 805]	–	–	> 30 µM	–	EC50 ([8]; […], 5HT3-R, Table 10): 1 µM; EC50 ([13]; […]): 4.9 µM
Cc1nc2cc3c(cc2nc1Cn1cncn1)C1CNCC3C1 (centres unmarked) [compound 807]	0.57 µM	> 30 µM	> 30 µM	> 30 µM	–
Cc1nc2cc3c(cc2nc1-n1cncn1)C1CNCC3C1 (centres unmarked) [compound 808]	12.5 µM	> 30 µM	> 30 µM	> 30 µM	EC50 ([8]; read-out: potency for 5HT3-R): > 1 µM; EC50 ([13]; potency for α4β2 nAChR): > 10 µM
Cc1nc2cc3c(cc2nc1Cn1cccn1)C1CNCC3C1 (centres unmarked) [compound 812]	11 µM	> 100 µM	> 100 µM	> 100 µM	–
CCOc1cnc2cc3c(cc2n1)C1CNCC3C1 (centres unmarked) [compound 815]	–	–	–	–	α4β2 nAChR agonism [13]: do not show evident α4β2 nAChR agonism; EC50 ([13]; read-out: EC50MP): > 30 µM; EC50 ([1]; read-out: EC50MP): > 100 µM; EC50 [2]: > 100 µM; In vivo potency ([10]; SNr silencing rotation assay in mice): 0.1 mpk

From patent US12247064B2, “Modified ligand-gated ion channels and methods of use” (Howard Hughes Medical Institute, priority 2017, dated 2025)
